US20120220462A1, “INDUCING AGENT FOR PLANT ROOT” (Shiseido Company, Ltd., priority 2004, published 2012)

Tests used:
Assay type in all cases: in vivo
[1] = system: Hydrangea (variety name unknown) branches including dormant buds; experiment: Evaluation Test 2: root inducing performance on Hydrangea branch cuttings including dormant buds, in soil; details: for Weight with soil attached / No. of roots grown/specimen: one month at 25° C.; for Weight with soil attached: water treatment 1.5; for No. of roots grown/specimen: water treatment 2.1
Protocol: Branches of Hydrangea (variety name unknown) including dormant buds were cut to 5 cm or so lengths in December and were transplanted into trays filled with soil composed of red gravel and vermiculite (7:3). Water or a specific ketol fatty acid (Ia) (10 μM, 100 μM) was sprayed, the specimens were then cultured in a 25° C. biochamber (12 hour bright/dark cycle) for one month. The weights in the state with the soil attached, when pulling the cuttings from the soil and the number of roots grown were measured. Note that an increase in the weight with the soil attached accompanies improvement of the soil holding rate accompanying development of fibrous roots and the proliferation of leaf buds.

[2] = system: Prunus×yedoensis (cherry tree) cuttings; experiment: Root inducing performance test for Prunus×yedoensis cuttings (survival); details: 10 branches, water 0%
Description: 15 test groups including the root inducing agent of the present invention alone and combinations of the agent with other existing root inducing agents were used for a test of the root inducing performance for Prunus×yedoensis.
The existing root inducing agents used for the test were the indole inducing agent shown by the following formula (V) (hereinafter abbreviated as the “IBL”. See Japanese Patent Publication No. 10-77268A) and the commercially available root inducing agent Oxiberon (hereinafter abbreviated as “Oxy”, Made by Bayer CropScience).
Test Group (1): water, Test Group (2): KODA 10 μM, Test Group (3): KODA 100 μM, Test Group (4): Oxy, Test Group (5): IBL 50 ppm, Test Group (6): IBL 100 ppm, Test Group (7): KODA 10 μM+Oxy, Test Group (8): KODA 100 μM+Oxy, Test Group (9): KODA 10 μM+IBL 50 ppm, Test Group (10): KODA 100 μM+IBL 50 ppm, Test Group (11): KODA 10 μM+IBL 100 ppm, Test Group (12): KODA 100 μM+IBL 100 ppm, Test Group (13): KODA 10 μM+IBL 50 ppm+Oxy, Test Group (14): KODA 100 μM+IBL 50 ppm+Oxy, Test Group (15): KODA 100 μM+IBL 100 ppm+Oxy.
Branches of Prunus×yedoensis used for the test were purchased from Sumitomo Forestry Landscaping Co., Ltd. These were cut to lengths of 5 to 8 cm or so from the tips and transplanted into mixed soil in trays composed of red gravel and vermiculite blended in a 7:3 ratio. At this time, 10 branches were used for each test group. […]

[3] = system: Hypericum chinense cuttings; experiment: Root inducing performance test for Hypericum chinense cuttings
Protocol: In this Example 3, in the same way as in Example 2, the specific ketol fatty acid (Ia) was used to test the root inducing performance for Hypericum chinense.
The compositions of the root inducing agents and the root inducing test procedure used in the test groups were the same as in Example 2. As a result of the tests, it was learned that there was 100% survival of the cuttings of Hypericum chinense in the case of use of the root inducing agent (10 μM) and IBL (50 ppm).
Note that the asterisks at the tops of the bar graphs of FIG. 1 indicate the rate of risk in measurement of the significant difference. One indicates a rate of risk of 5% or less, two a rate of risk of 1% or less, and three a rate of risk of 0.5% or less.

[4] = system: Hydrangea (variety name unknown) second node parts; experiment: Evaluation Test 1: root inducing performance on cut second node parts of Hydrangea, sprayed, on laboratory dishes; details: 25° C. continuous light, 20 days, five specimens, water group 1.1
Protocol: The second node parts of Hydrangea (variety name unknown) were cut out in August and placed on laboratory dishes, on which filter paper was laid.
Aqueous solutions of the specific ketol fatty acid (Ia) (concentrations 100 μM and 200 μM) were prepared and sprayed by sprayers on said cut Hydrangea, which were then allowed to stand covered for 2 hours. Note that the control group was sprayed with pure water and allowed to stand in the same way as the specific ketol fatty acid (Ia). Thereafter, water was added and the resultant product allowed to stand at 25° C. under continuous light for 20 days.
The average number of roots grown were counted for five specimens in each group, whereby the average for the water treatment group was 1.1, the specific ketol fatty acid (Ia) 100 μM group was 3.2, and the 200 μM group 3.1.

[5] = system: Paraserianthes falcataria Becker cuttings; experiment: Root inducing performance test for Paraserianthes falcataria Becker cuttings; details: Oxiberon 0, after two months
Description: Paraserianthes falcataria Becker useful as a material for producing plywood is a tropical plant, but like other trees, cannot be transplanted by cutting as the trees age. The inventors tried transplanting Paraserianthes falcataria Becker, considered impossible to transplant by cuttings, using KODA and the existing root inducing agent Oxiberon (made by Bayer CropScience). For the cultivation soil, they used red gravel granules.

Q: With `CC/C=C\C/C=C\CC(=O)C(O)CCCCCCCC(=O)O` (centres unmarked) [specific ketol fatty acid (Ia), 9-hydroxy-10-oxo-12(Z),15(Z)-octadecadienoic acid] as the compound, how does the “Weight with soil attached” value ([1]; 10 μM sprayed) read?
A: 6.8 g/specimen

Q: What about the “No. of roots grown/specimen” value ([1]; 10 μM sprayed) of the same compound?
A: 5.3

Q: What about the “development of leaf buds” value ([1]; 10 μM, 100 μM sprayed, one month, read from Table II results) of the same compound?
A: promotes development of leaf buds

Q: And the “Weight with soil attached” value ([1]; 100 μM sprayed)?
A: 4.4 g/specimen

Q: And the “No. of roots grown/specimen” value ([1]; 100 μM sprayed)?
A: 6.5

Q: What about the “number of cuttings surviving seven weeks after the start of the test” value ([2]; Test Group (2): KODA 10 μM) of the same compound?
A: 10%

Q: What about the “number of cuttings surviving seven weeks after the start of the test” value ([2]; Test Group (3): KODA 100 μM) of the same compound?
A: 10%

Q: What about the “amount of root inducing compared with the water-treated group (FIG. 1)” value ([3]; Test Group (2): KODA 10 μM) of the same compound?
A: clearly increased

Q: And the “amount of root inducing compared with the water-treated group (FIG. 1)” value ([3]; Test Group (3): KODA 100 μM)?
A: clearly increased

Q: And the “average number of roots grown” value ([4]; 100 μM aqueous solution sprayed)?
A: 3.2

Q: What about the “average number of roots grown” value ([4]; 200 μM aqueous solution sprayed) of the same compound?
A: 3.1

Q: What about the Maximum root length ([5]; KODA 10 (μm)) of the same compound?
A: 27.3 mm

Q: What about the Root dried weight ([5]; KODA 10 (μm)) of the same compound?
A: 1.8 mg

Q: And the “Root Inducing rate” value ([5]; KODA 10 (μm), sprayed)?
A: 44%

Q: And the Maximum root length ([5]; KODA 100 (μm))?
A: 5.3 mm

Q: And the “Root Inducing rate” value ([5]; KODA 100 (μm))?
A: 11%

Q: And the Root dried weight ([5]; KODA 100 (μm))?
A: 2.9 mg
